Results from patent US10836792B2, “Retro-inverso peptide inhibitors of cell migration, extracellular matrix and endothelial invasion by tumor cells” (ISTITUTO NAZIONALE TUMORI IRCCS “FONDAZIONE G. PASCALE”, priority 2016, dated 2020).

Legend:
HT1080 cells [1] = assay: FBS-directed migration of HT1080 cells in Boyden chambers; format: cell-based, human; conditions: 10 nM peptide, 10% FBS, 4 hrs
Experimental: FIG. 4 Retro-inverso peptides inhibit FBS-directed migration of HT1080 cells in a dose dependent manner (Example 4).
To assess whether retro-inverso peptides exert some effect on directional cell migration, HT1080 cells were allowed to migrate for 4 hrs in Boyden chambers toward serum-free medium (CTRL), 10% FBS (None) or 10% FBS mixed with peptides, each tested at 10 nM concentration. For quantitative analysis, the basal values assessed in the absence of FBS (CTRL) was taken as 100% and all values were reported relative to that. Data are the means±SD of two independent experiments, performed in triplicate. Statistical significance calculated against None with *p<0.01, **p<0.001 (A). All retro-inverso peptides caused a reduction of FBS-directed cell migration although to different extent. Peptides RI-1, RI-2, RI-3, RI-4 and RI-5 reduced by 49%, 46%, 65%, 9% and 6%, respectively, the extent of FBS-directed cell migration. Similar results were obtained when, HT1080 cell migration was monitored in real time for 18 hrs at 37° C., 5% CO2 by the xCELLigence system. Data represent mean±SD from a quadruplicate experiment representative of 2 replicates (B). Then, HT1080 cells were allowed to migrate in Boyden chambers toward 10% FBS plus increasing concentrations of RI-3, and data were expressed as a percentage of cells migrated toward FBS alone (100%) Inhibitory effect of RI-3 is dose-dependent, it starts in the high fM range, it seems to level off in the nM range and reaches an overall 50% reduction at 1×10^−13M (C).

HT1080 cells [2] = assay: FBS-directed matrigel invasion of HT1080 cells (xCELLigence RTCA); format: cell-based, human; conditions: 10 nM peptide, growth medium, 20 hrs
Text: FIG. 5 Peptides RI-1, RI-2, RI-3, RI-4 and RI-5 reduced by 33%, 35%, 81%, 52% and 11%, respectively, the extent of FBS-directed matrigel invasion of HT1080 cells (A), as assessed in real time using the xCELLigence RTCA technology. The inhibitory effect of RI-3 is dose-dependent (B) (Example 5).
Cell migration is a prerequisite for cancer invasion. Therefore, we investigated whether retro-inverso peptides prevent matrigel invasion of HT1080 cells using the xCELLigence RTCA technology. Cells were seeded on polymerized matrigel and lower chambers were filled with DMEM (CTRL), growth medium (None) or growth medium with 10 nM the indicated peptides (A), or with increasing concentrations of RI-3 (B). Matrigel invasion was monitored in real time for 20 (A) or 18 (B) hrs at 37° C., 5% CO2 and the impedance values were automatically monitored as changes in cell index. Data represent means±SD from quadruplicate experiments, each representative of 2 replicates. HT1080 cells were able to cross matrigel in the presence of 10% FBS. All retro-inverso peptides caused a reduction of FBS-directed cell migration although to different extent.

sarcoma cell = conditions: mouse model of lung colonization; cited from earlier work
[3] = test system: human fibrosarcoma HT1080 cells; assay: Migration of HT1080 cells toward the peptides as chemoattractant (xCELLigence RTCA); format: cell-based; conditions: 10 nM peptide as chemoattractant, 18 hrs, cell index
Text: Cell index due to the adhesion of migrating cells to microelectrodes are reported in (A); analysis of slopes representing the change rate of cell index generated in the time range 0-12 hr are reported in (B).
We assessed whether new generated retro-inverso peptides elicit themselves cell migration of human fibrosarcoma HT1080 cells. […] The results are depicted in FIG. 2. Data represent mean±SD from a quadruplicate experiment representative of 2 replicates (A).

| Substance | reduction of the extent of FBS-directed cell migration (HT1080 cells [1]) [%] | reduction of the extent of FBS-directed cell invasion (matrigel) (HT1080 cells [2]) [%] | inhibition of sarcoma cell invasion (sarcoma cell) | cell migration triggered by the peptide [3] |
| --- | --- | --- | --- | --- |
| 3-phenylpropionyl-D-Arg-Aib-D-Arg-NH2 [RI-5] | 6 | 11 |  |  |
| Ac-(D)-Tyr-(D)-Arg-(D)-Glu-(D)-Arg-NH2 [RI-1] | 49 | 33 |  |  |
| Ac-(D)-Tyr-(D)-Arg-(D)-Ser-(D)-Arg-NH2 [RI-2] | 46 | 35 |  |  |
| Ac-L-Arg-Aib-L-Arg-D-Cα(Me)Phe-NH2 [UPARANT] |  |  | does not inhibit sarcoma cell invasion |  |
| N-formyl-methionyl-leucyl-phenylalanine peptide [fMLF] |  |  |  | elicited a considerable cell migration |
| Phenylacetyl-D-Arg-Aib-D-Arg-NH2 [RI-4] | 9 | 52 |  |  |
